Measured values from US20050049273A1, “Acridone derivatives as anti-herpesvirus agents” (priority 2003, published 2005).
Like-named read-outs stand apart in the source and are kept apart here.

Legend:
HSV = details: published work; cited from earlier work
HSV-1 proteins = test: HSV-1 viral protein accumulation (Western immunoblot); format: cell-based; details: 10 micromolar, 16 hours, 2% (v/v) serum, FIG. 5D
HCMV = HCMV plaque-elimination assay in HEL cells; format: cell-based, HCMV (Towne); details: for EC50: read-out: ED50 HCMV; for activity against HCMV, in words: quantitative comparison, Table 1; for percent inhibition observed at the highest concentration tested, HCMV: number in parenthesis, NA = no activity observed; for inhibition of HCMV replication in plaque-elimination screen: fixed concentration, five micromolar (1, 2, ACV ten micromolar; PFA 250 micromolar), FIG. 3
Experimental: Virus and cell growth inhibition assays. Established virus culture techniques were used (E.-S. Huang, and T Kowalnick, Diagnosis of human cytomegalovirus infection: laboratory approaches, in Molecular Aspects of Human Cytomegalovirus Diseases (Becker,Y., Daria, G., and Huang, E.-S. eds.), Springer-Verlag, Berlin, pp. 225-255 (1993); Akanitapichat et al., Antiviral Research 45: 123-134 (2000)) but with the following modifications. For the HCMV plaque-elimination assay, HEL cells were plated in standard medium at 60,000 per cm^2 and infected the following day with 50-100 PFU HCMV for 90 minutes with occasional agitation. The inoculate was replaced with maintenance medium containing 5% (v/v) fetal calf serum and test agents as indicated (see below). After an additional 6-10 days of culture, cells were fixed with formal saline (10% formalin in phosphate-buffered saline; PBS), stained with 0.1% (w/v) toluidine blue in PBS and plaques were scored using an inverted light microscope at 40x magnification (FIGS. 2A and 3). For ED50 determination, the value was interpolated from dose-response data and is the concentration of compound that reduced plaque formation by 50% relative to control under the specified condition.

HSV-2 [1] = test: HSV-2 viral yield-reduction assay in Vero cells; format: cell-based, HSV-2 (strain 186); details: for EC50: read-out: ED50 HSV-2
Experimental: (§1) Three types of antiviral assay were used for HSV studies. For plaque-elimination, Vero cells (70000 per cm^2) were infected with 50-100 PFU for 30 minutes with occasional agitation. The inoculate was replaced with medium containing 1% (v/v) fetal calf serum and supplemented with test agents as indicated (see below). After two days of culture, cells were processed using crystal violet staining and plaques were scored by visual examination (FIG. 3). For examination of anti-HSV activity in parallel cultures during biochemical experiments, the progeny virus obtained from cells and from the culture medium at 23 hours post-infection was determined by limiting dilution on Vero cells (FIG. 5A). Macroscopic viral plaques were scored after two days of incubation in medium containing 1% (w/v) carboxymethylcellulose and 0.5% (v/v) fetal calf serum. For ED50 measurements, the concentration of compound that reduced a single-cycle of viral yield by 50% relative to the control and under the specified condition was interpolated from dose-response graphs (FIG. 4, Table 1). Over the course of ten independent experiments, the mean cell-associated viral yield was 180 PFU per cell (SD=80) and 10 PFU per cell (SD=5) for HSV-1 and HSV-2 respectively. The percent viral release (into the culture medium) was 16 (SD=7) and 0.9 (SD=0.6) for HSV-1 and HSV-2 respectively. These virologic parameters were independent of viral load and serum concentration.

HSV-1 = HSV-1 viral yield-reduction assay in Vero cells; format: cell-based, HSV-1 (KOS); details: for EC50: read-out: ED50 HSV-1
Experimental: as §1

[2] = Vero cell growth inhibition (Sulforhodamine B protein-dye binding); format: cell-based, African green monkey; details: African green monkey
Experimental: (§2) The effect of compounds on host cell replication (CC50), was measured using Sulforhodamine B-staining and the spectrophotometric method originally developed for the NCIs's in vitro anti-cancer drug screening program (P. Skehan et al., J. Natl. Cancer. Inst. 82, 1107-1112 (1990)). The CC50 value is the concentration of compound that inhibited actively replicating cells by 50% of control respectively after two days of continuous treatment.

Vero = test: as above; format: cell-based, African green monkey; details: for percent inhibition observed at the highest concentration tested, Vero growth: number in parenthesis
Experimental: as §2

[3] = HEL cell growth inhibition (Sulforhodamine B protein-dye binding); format: cell-based, human; details: human, cell growth inhibition, two days of continuous treatment
Experimental: as §2

[4] = tested on: HSV-2 late viral proteins; test: HSV-2 late viral protein synthesis (pulse labeling, SDS-PAGE, phosphor-imaging); format: cell-based; details: twenty micromolar, 0.1 PFU, 2% (v/v) serum
Experimental: Analysis of HSV proteins. Viral protein synthesis was examined using pulse labeling, SDS-PAGE gel separation and phosphor-imaging. Vero cells were infected and treated under conditions specified below and in FIG. 5. After 17 hours of infection, 10 μCi/mL TRAN^35S-LABEL ™ was added directly to culture medium and incubation continued for 30 more minutes. Radio-labeled cell cultures were carefully washed with PBS pre-warmed to 37° C. then lysed at 2,000,000 cells per mL in the same buffer supplemented with 2% (w/v) SDS. After denaturing cell lysates in Laemmli loading buffer, total proteins recovered from 30,000 cells were separated using either 8% (FIG. 5B) or 10% (FIG. 5D) PAGE-SDS gels (U. Laemmli, Nature, 227,680-685 (1970)). Proteins were transferred to nitrocellulose and the synthesized proteins were visualized and quantified using a STORM phosphorimager (Molecular Devices, Sunnyvale CA) and the supplied ImageQuant software according to the manufacturers instructions (FIG. 5, panels B and C). Protein load between samples was compared qualitatively by visual examination of filters stained with India-Ink. A complementary approach for assessing drug effect on viral proteins involved immune detection on a Western-blot using conditions and reagents described previously (Akanitapichat and Bastow, supra 2002).

HSV-2 [5] = test: HSV-2 plaque-elimination assay in Vero cells; format: cell-based, HSV-2 (strain 186); details: fixed concentration, five micromolar (1, 2, ACV ten micromolar; PFA 250 micromolar), Vero cells, FIG. 3
Experimental: as §1

HEL = HEL cell growth inhibition (Sulforhodamine B protein-dye binding); format: cell-based, human; details: for percent inhibition observed at the highest concentration tested, HEL growth: number in parenthesis, NA = no activity observed
Experimental: as §2

host cell replication = test: Host cell replication (CC50), host cell not specified; format: cell-based; details: mean CC50
Experimental: as §2

[6] = Human betaherpesvirus 5, prevention of microscopic viral plaques, HEL cells
[7] = Human alphaherpesvirus 2, viral yield-reduction, 1 PFU per cell in 5% (v/v) serum, Vero cells
[8] = Human alphaherpesvirus 1, viral yield-reduction, 1 PFU per cell in 5% (v/v) serum, Vero cells
[9] = Vero cells, cell growth inhibition, two days of continuous treatment, read-out: CC50 Vero
[10] = quantitative comparison, Table 1
[11] = cell growth inhibition, two days of continuous treatment

O=c1c2cc(O)ccc2[nH]c2cc(O)cc(O)c12 [1,3,7-trihydroxyacridone]
selectivity of anti-HSV action (HSV): 3 fold

Nc1nc2c(ncn2COCCO)c(=O)[nH]1 [ACV, Acyclovir]
effect on HSV-1 viral protein accumulation (HSV-1 proteins): abolished
EC50 (HCMV; [6]): > 200 µM
activity against HCMV, in words (HCMV): inactive
activity against HSV-2 relative to HSV-1 (HSV-2 [1]): four-fold less active
EC50 (HSV-2 [1]; [7]): 0.8 ± 0.1 µM
EC50 (HSV-1; [8]): 0.2 µM
CC50 at 2 days [2, 9]: > 200 µM
percent inhibition observed at the highest concentration tested, Vero growth (Vero): 41%
CC50 at 2 days ([3]; HEL cells): > 500 µM

COc1cc(O)c2c(=O)c3cccc(O)c3n(C)c2c1OC [Citrusinine-I]
HSV-2 late protein synthesis remaining [4]: about 10 % of control
inhibition of HSV-2 replication in plaque-elimination screen (HSV-2 [5]): HSV plaque-size was uniformly smaller in the presence of Citrusinine I but the number of visible plaques was not reduced
activity against HCMV, in words (HCMV): selective inhibitor
activity against HSV-2, in words (HSV-2 [1]; [10]): selective inhibitor
HSV-2 replication remaining (HSV-2 [1]; twenty micromolar, 0.1 PFU, 22 hours, 2% (v/v) serum): about 10 % of control
activity against HSV-1 (KOS), in words (HSV-1; [10]): inactive
CC50 (Vero; [11]): 27 ± 4 µM
CC50 (HEL; [11]): 41 ± 5 µM

O=c1c2cccc(Cl)c2[nH]c2cc(O)cc(O)c12 [Compound 1, 5-chloro-1,3-dihydroxyacridone]
EC50 (HCMV; Human betaherpesvirus 5, HEL): > 50 µM
percent inhibition observed at the highest concentration tested, HCMV (HCMV): 25%
selectivity of anti-HSV action (HSV): 26 fold
EC50 (HSV-2 [1]; Human alphaherpesvirus 2, Vero): 3.8 ± 0.3 µM
EC50 (HSV-1; Human alphaherpesvirus 1, Vero): 4.3 ± 0.8 µM
CC50 at 2 days ([2]; cell growth inhibition, two days of continuous treatment, read-out: CC50 Vero): > 50 µM
percent inhibition observed at the highest concentration tested, Vero growth (Vero): 23%
CC50 at 2 days [3]: > 50 µM
percent inhibition observed at the highest concentration tested, HEL growth (HEL): 18%

COc1ccc2[nH]c3cc(O)cc(O)c3c(=O)c2c1 [Compound 3, 1,3-Dihydroxy-7-methoxyacridone]
inhibition of HSV-2 replication in plaque-elimination screen (HSV-2 [5]): inactive
inhibition of HCMV replication in plaque-elimination screen (HCMV; HEL cells): inactive

COc1cc(O)c2c(=O)c3cc(O)ccc3[nH]c2c1 [Compound 4, 1,7-Dihydroxy-3-methoxyacridone]
inhibition of HSV-2 replication in plaque-elimination screen (HSV-2 [5]): only inhibited HSV replication
CC50 at 2 days ([2]; Vero cells, read-out: CC50 against Vero replication): 25 µM

COc1cc(O)c2c(=O)c3cccc(OC)c3[nH]c2c1 [Compound 5, 3,5-Dimethoxy-1-hydroxyyacridone]
inhibition of HSV-2 replication in plaque-elimination screen (HSV-2 [5]): inactive
inhibition of HCMV replication in plaque-elimination screen (HCMV; HEL cells): inactive
CC50 (host cell replication): 33 µM

COc1ccc2[nH]c3cc(OC(C)C)cc(O)c3c(=O)c2c1 [Compound 8, 1-Hydroxy-3-isopropoxy-7-methoxyacridone]
inhibition of HSV-2 replication in plaque-elimination screen (HSV-2 [5]): almost completely preventing the formation of microscopic viral plaques
inhibition of HCMV replication in plaque-elimination screen (HCMV; HEL cells): almost completely preventing the formation of microscopic viral plaques
viral release (HSV-2 [1]; 10 μM in 2% (v/v) serum, 0.001 PFU per cell HSV-2, up to forty-eight hours after infection): completely prevented viral release
inhibition at 10 µM (HSV-2 [1]; Human alphaherpesvirus 2, Vero, 10 μM in 2% (v/v) serum, 0.001 PFU per cell HSV-2, forty-eight hours, read-out: inhibition of production of cell-associated virus): 80%

COc1ccc2[nH]c3cc(OCc4ccccc4)cc(O)c3c(=O)c2c1 [Compound 9, 3-Benzyloxy-1-hydroxy-7-methoxyacridone]
inhibition of HSV-2 replication in plaque-elimination screen (HSV-2 [5]): inhibited HCMV but not HSV-2 replication
anti-HCMV activity relative to compound 2 (HCMV): about five-fold less active than 2
EC50 (HCMV; [6]): 6.9 ± 0.6 µM
inhibition of HCMV replication in plaque-elimination screen (HCMV; HEL cells): inhibited HCMV but not HSV-2 replication

C=CCOc1cc(O)c2c(=O)c3cc(OC)ccc3[nH]c2c1 [Compound 10, 3-Allyloxy-1-hydroxy-7-methoxyacridone]
effect on HSV-1 viral protein accumulation (HSV-1 proteins): no effect
inhibition of HSV-2 replication in plaque-elimination screen (HSV-2 [5]): almost completely preventing the formation of microscopic viral plaques
inhibition of HCMV replication in plaque-elimination screen (HCMV; HEL cells): almost completely preventing the formation of microscopic viral plaques
percent inhibition observed at the highest concentration tested, HCMV (HCMV): 80%
activity against HCMV, in words (HCMV): at least as active as the 3,7-dimethoxy lead (2)
selectivity, inhibition of HSV-2 replication (HSV-2 [1]): 24 fold
EC50 (HSV-2 [1]; [7]): 3.9 ± 1 µM
selectivity, inhibition of HSV-1 replication (HSV-1): 41 fold
change of ED50 concentration for inhibition of viral release (HSV-1; HSV-1, low viral load (0.01 PFU) and low serum (0.5% v/v), FIG. 4 panel D): decreased about six-fold
inhibition at 10 µM (HSV-1; Human alphaherpesvirus 1, Vero, 10 micromolar, 16 hours, 2% (v/v) serum, various viral loads, FIG. 5D, read-out: inhibition of HSV-1 viral replication): 64 to 95%
EC50 (HSV-1; [8]): 2.3 ± 0.3 µM
CC50 at 2 days [2, 9]: 95 ± 2 µM
CC50 at 2 days ([3]; HEL cells): > 50 µM
percent inhibition observed at the highest concentration tested, HEL growth (HEL): 33%

COc1cc(O)c2c(=O)c3cc(OC(C)C)ccc3[nH]c2c1 [Compound 13, 1-Hydroxy-7-isopropoxy-3-methoxyacridone]
inhibition of HCMV replication in plaque-elimination screen (HCMV; HEL cells): active
CC50 at 2 days ([3]; HEL cells): 12 µM

O=C(O)P(=O)(O)O [PFA, phosphonoformic acid]
EC50 (HCMV; [6]): 70 ± 10 µM
EC50 (HSV-2 [1]; Human alphaherpesvirus 2, Vero): 60 ± 5 µM
CC50 at 2 days [2, 9]: > 500 µM
percent inhibition observed at the highest concentration tested, Vero growth (Vero): 11%
CC50 at 2 days ([3]; HEL cells): > 500 µM
percent inhibition observed at the highest concentration tested, HEL growth (HEL): 11%
